The assay concerns the target T1, mTAAR7f (Mus musculus, UniProt Q5QD08).
T1 construct: gene Taar7f; full length; N-terminal signal peptide, twin-strep and SNAP-tag, C-terminal nanoluc; BRET partner NES-Venus-mini-Gs (reporter)
T1 sequence (Q5QD08 1-358): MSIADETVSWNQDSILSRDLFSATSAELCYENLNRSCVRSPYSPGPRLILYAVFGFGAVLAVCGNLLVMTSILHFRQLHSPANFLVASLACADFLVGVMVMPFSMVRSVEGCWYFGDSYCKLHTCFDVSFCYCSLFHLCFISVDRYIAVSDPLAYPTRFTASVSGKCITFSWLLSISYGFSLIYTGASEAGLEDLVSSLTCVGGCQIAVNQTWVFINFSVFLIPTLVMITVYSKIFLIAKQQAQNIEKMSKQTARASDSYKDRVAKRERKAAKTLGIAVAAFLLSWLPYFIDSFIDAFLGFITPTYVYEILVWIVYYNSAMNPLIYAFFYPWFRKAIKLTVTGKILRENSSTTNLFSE
The assay is described as follows: BRET mini-Gs recruitment (nanoluc receptor, NES-Venus-mGs), concentration-response. The assay is classed as cell-based. The text has this:
BRET mini-Gs recruitment (nanoluc receptor, NES-Venus-mGs), concentration-response on mTAAR7f | BRET ratios measured for increasing concentrations of the agonist DMCHA for the wild-type mTAAR7f
A general note: BRET reads energy transfer from a luciferase to a nearby fluorophore.

The source of these data is article PMC11364543, “Molecular recognition of an odorant by the murine trace amine-associated receptor TAAR7f” (Nature Communications, 2024).

By EC50 is commonly meant the midpoint of the concentration-response curve. High values mean a less potent agent, low ones a more potent agent.

Turning to `CN(C)C1CCCCC1` [N,N-dimethylcyclohexylamine], a half-maximal response (EC50) required 8.51 µM.
